Key:
[1] = system: db/db mouse model of type II diabetes; assay: Single dose at peak or nadir of clock gene expression, OGTT in db/db mice; format: in vivo
From the text: Mice were split into two study arms, to be dosed at either the peak or nadir of Cry1 and Bmal1 gene expression. […] Mice dosed at ZT10 were fasted beginning at 8:30 am in the same manner.
Significance was accepted when p<0.05.

[2] = biological target: isolated FAD-binding domain of human CRY1 protein (hCRY1) (Homo sapiens (Human), UniProt Q16526); assay: Thermal shift binding assay (differential scanning fluorimetry)
Description: Binding of compounds to the isolated FAD-binding domain of human CRY1 protein (hCRY1) was determined using a differential scanning fluorimetry (‘thermal shift’) assay (Pantoliano et al. (2001) J Biomol Screening 6, 429; Niesen et al. (2007) Nature Protocols 2, 2212). The FAD-binding domain of hCRY1 (amino acid residues 1-494) with a C-terminal Myc-DDK tag (FADBD), was produced by transient transfection of HEK293T cells (Catalog # CRL-3216, American Type Culture Collection) and purified by anti-FLAG affinity chromatography (Catalog # A2220, Sigma-Aldrich). FADBD (0.5 μg per well) was incubated with dilutions of compounds in DMSO (5% DMSO final concentration in reaction) in 17.5 μl Tris-buffered saline (TBS) for 10 minutes on ice, then 2.5 μl of 8× Sypro-Orange Dye (Life Technologies) was added to each well. Triplicate wells were assayed for each compound concentration. The melting temperatures were measured in an ABI7500 quantitative PCR instrument using the melt curve mode with a thermal profile of 2 minutes at 25° C., followed by a ramp rate of 1° C./minute up to 99° C. The melting temperature for each well was determined from the first derivative of the melt curve. The change in melting temperature (ΔTm) was obtained by subtraction of the melting temperature of the FADBD in 5% DMSO alone.

isolated FAD-binding domain of human CRY1 protein (hCRY1), sequence (Q16526 1-494): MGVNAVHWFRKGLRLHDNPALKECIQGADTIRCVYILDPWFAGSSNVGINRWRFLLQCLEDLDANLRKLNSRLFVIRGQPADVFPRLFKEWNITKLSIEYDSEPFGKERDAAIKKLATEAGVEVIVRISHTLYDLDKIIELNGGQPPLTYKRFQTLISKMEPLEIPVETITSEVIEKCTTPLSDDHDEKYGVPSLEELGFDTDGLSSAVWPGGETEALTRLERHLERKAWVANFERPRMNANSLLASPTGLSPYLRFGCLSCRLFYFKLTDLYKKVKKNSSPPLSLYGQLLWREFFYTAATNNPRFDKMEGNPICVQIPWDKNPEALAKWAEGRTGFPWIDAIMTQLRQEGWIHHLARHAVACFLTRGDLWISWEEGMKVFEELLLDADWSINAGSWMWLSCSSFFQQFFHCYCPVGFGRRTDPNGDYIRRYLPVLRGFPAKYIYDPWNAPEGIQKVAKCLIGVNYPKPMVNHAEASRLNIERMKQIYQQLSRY

- change in melting temperature (ΔTm) of hCRY1 FADBD [2]: dose-dependent increase
SMILES: O=C1NCCN1CC(O)Cn1c2ccc(F)cc2c2cc(F)ccc21 (stereo not shown) [Compound 72, 1-(3-(3,6-difluoro-9H-carbazol-9-yl)-2-hydroxypropyl)imidazolidin-2-one]
- effect on OGTT measurement, dosed at peak ([1]; 50 mg/kg PO single dose at ZT0, db/db mice): apparent effect
- effect on OGTT measurement, dosed at nadir ([1]; 50 mg/kg PO single dose at ZT10, db/db mice): no effect
- reduction in glucose excursion (AUC) ([1]; 50 mg/kg PO single dose at peak (ZT0), vs vehicle): 14%

— patent US10759777B2, “Carbazole-containing amides, carbamates, and ureas as cryptochrome modulators” (Synchronicity Pharma, Inc., priority 2014, dated 2020)
